{"source": "patent US20090176696A1", "about": "“Methods And Compositions For Modulating An Immune Response” (priority 2006, published 2009)", "key": {"[1]": {"tested_on": "KLH-specific T cell responses", "experiment": "Footpad immunisation with KLH (PBS, alum or LPS) with or without TCT; popliteal lymph node cytokines", "assay_type": "in vivo, BALB/c mice", "description": "BALB/c mice were injected subcutaneously into the footpad with either PBS alone, KLH (20 μg), KLH adsorbed to alum, KLH+LPS (10 μg) or KLH+TCT (10 or 25 μg), KLH+LPS+TCT or KLH+TCT adsorbed to alum. 5 days later mice were sacrificed and the popiliteal LNs were removed. Single LN cell suspensions were cultured in the presence of increasing concentrations of KLH (2-50 μg/ml) or PMA/CD3 or medium as positive and negative controls respectively. Supernatants were taken 3 days later and tested for IFN-γ, IL-10, IL-4 and IL-5 by ELISA. Results are mean (+/−SD) values for 5 mice per group."}, "[2]": {"tested_on": "Experimental autoimmune encephalomyelitis (EAE)", "experiment": "Experimental autoimmune encephalomyelitis (EAE) induced with MOG peptide 35-55 in CFA", "assay_type": "in vivo, C57BL/6 mice", "description": "EAE was induced in C57BL/6 mice by subcutaneous immunisation with 150 μg MOG peptide 35-55 emulsified in CFA supplemented with 5 mg/ml of killed Mycobacterium tuberculosis. Mice were injected intraperitoneally (i.p) with 500 ng of pertussis toxin (PT) on days 0 and 2. Mice were injected with either PBS or TCT (10 μg/mouse) s.c in the flank on day 1 post EAE induction and every 3-4 days thereafter (FIG. 15). Mice were observed daily for signs of clinical disease. Disease severity was recorded as follows: grade 0, normal; grade 1, limp tail; grade 2, wobbly gait; grade 3, hind limb weakness; grade 4, hind limb paralysis and grade 5, tetraparalysis/death."}, "[3]": {"conditions": "KLH and LPS, co-administration of TCT"}, "[4]": {"conditions": "KLH in alum, TCT 10 or 25 μg/mouse"}, "[5]": {"conditions": "KLH in alum, treatment with TCT"}, "[6]": {"conditions": "co-administration of TCT with KLH in PBS"}}, "data": [{"smiles": "CC(=O)NC1C(OC2C3COC(O3)C(NC(C)=O)C2OC(C)C(=O)NC(C)C(=O)NC(CCC(=O)NC(CCCC(N)C(=O)NC(C)C(=O)O)C(=O)O)C(=O)O)OC(CO)C(O)C1O", "note": "(stereo not shown) [TCT, N-acetylglucosaminyl-1,6-anhydro-N-acetylmuramylalanyl-γ-glutamyldiaminopimelylalanine]", "values": [{"measurement": "IFN-γ production promoted with LPS", "setting": "[1]; [3]", "result": "not affected"}, {"measurement": "IL-10 production promoted with LPS", "setting": "[1]; [3]", "result": "not affected"}, {"measurement": "IL-4 response, draining lymph node cells", "setting": "[1]; [4]", "result": "significantly reduced"}, {"measurement": "IL-5 response, draining lymph node cells", "setting": "[1]; [4]", "result": "significantly reduced"}, {"measurement": "IFN-γ production, draining lymph node cells", "setting": "[1]; [5]", "result": "not significantly affected"}, {"measurement": "IL-10 production, draining lymph node cells", "setting": "[1]; [5]", "result": "not significantly affected"}, {"measurement": "IFN-γ response", "setting": "[1]; [6]", "result": "enhanced"}, {"measurement": "IL-10 response", "setting": "[1]; [6]", "result": "enhanced"}, {"measurement": "first clinical signs of disease post induction", "setting": "[2]; TCT 10 μg/mouse s.c. day 1 and every 3-4 days, untreated mice 12 days", "result": 18, "unit": "days"}, {"measurement": "severity of disease", "setting": "[2]; TCT 10 μg/mouse s.c., versus untreated control mice", "result": "lower than that observed in the untreated control mice"}]}]}
